Read-outs that look alike come from different tables or passages of the source.
Legend:
Type in all cases: binding
[1] = system: RCOR1; test: Chemoproteomic competition pulldown assay (co-competed CoREST partner); settings: iL, MV4-11 lysate
Description: (§1) To identify proteins directly bound by lipoic acid, we employed a chemoproteomic competition assay. Briefly, (R/S)-LA was immobilized on sepharose beads via an amidation reaction to form an affinity matrix (abbreviated as iL; Fig. 1a). This affinity matrix can be incubated with cell lysate to pull down potential LA or LM target proteins and identify these targets via bottom-up proteomics. In a competition assay, free LA or LM were incubated with lysate at different concentrations before pulling down and quantifying target proteins. […] (Fig. 1b, see “Methods” for details). […] The lysate buffer used in this assay contains 1 mM DTT to mimic the intracellular reductive milieu and to reduce lipoic acid and LM. […] Additional competition assays performed in lung adenocarcinoma cell A549 lysate also identified HDAC1, HDAC2, and HDAC6 as targets (Supplementary Fig. 1b). Amongst the three cell lines tested, HDACs were the only confidently identified targets across the 1500–3000 proteins quantified in these assays. […] We validated the results by analogous pulldown competition assays using two other affinity matrices prepared via the immobilization of either the HDAC inhibitor Quisinostat (iQ) and an analog of the class IIa HDAC inhibitor Bürli’s 31[14] (iC)[12]. We have previously shown that these affinity matrices specifically bind to the active sites of HDACs and have used them for HDACi selectivity profiling. Indeed, binding of (R/S)-LA and (R/S)-LM to HDAC1, HDAC2, HDAC3, HDAC6, and, to a lesser extent, HDAC8 was confirmed in these assays (Supplementary Fig. 1c, d). No binding to class IIa HDACs or the recently discovered common HDAC inhibitor off-target MBLAC2 was observed (Supplementary Fig. 1e)[12]. […] This observation might reflect electrostatic repulsion between the HDAC10 active site gate-keeper glutamic acid residues[15],[16] and the terminal carboxylic acid of LA.
(§2) To assess the degree of protein depletion from lysates by the affinity matrix, a second pulldown (PDPD) with fresh beads was performed using the unbound protein fraction from the vehicle control flow through. The beads were washed (1 × 1 mL of lysis buffer without inhibitors and only 0.4% Igepal, 2 × 2 mL of lysis buffer without inhibitors and only 0.2% Igepal), and captured proteins were denatured with 8 M urea buffer, alkylated with 55 mM chloroacetamide and digested with Trypsin according to standard procedures. The resulting peptides were desalted on a C18 filter plate (Sep-Pak® tC18 µElution Plate, Waters), vacuum dried, and stored at −20 °C until LC–MSMS measurement.
(§3) For the competition assays, relative binding was calculated based on the protein intensity ratio to the DMSO control for every single inhibitor concentration. EC50 values were derived from a four-parameter log-logistic regression with variable slope (constrain: bottom > 0). The obtained EC50 values were multiplied with a protein-dependent correction factor (cf), resulting in the apparent Kd value (Kd^app). The correction factor is determined by calculating the ratio of the protein intensity of two consecutive pulldowns of the vehicle control sample[13]. Targets of the inhibitors were annotated manually according to published procedures[12],[46],[47]. […] Additionally, the number of unique peptides and MSMS counts per condition were taken into account. Positive target binding across several independent experiments performed with different cell lysates further substantiated our confidence for a true positive drug-target binding event.

[2] = system: KDM1A; test: as above
Description: as §1, §2, §3

[3] = system: RCOR3; test: as above
Description: as §1, §2, §3

[4] = system: HMG20A; test: as above
Description: as §1, §2, §3

[5] = target: HDAC1 (Homo sapiens, UniProt Q13547); test: Chemoproteomic competition pulldown assay; design: endogenous in cells; host or cells: SW620, MV4-11, A549 lysates; settings: for Kd: read-out: pKdapp (converted)
Summary of the method: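 Competition chemoproteomics: lysate (incl. A549; 1 mM DTT) + free LA/LM, dose series → pulldown on affinity matrix (iL, iQ or iC) → urea denaturation, chloroacetamide alkylation, trypsin digest → LC–MSMS. Kd^app = EC50 × cf.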

[6] = iL, MV4-11 lysate, log10 M -3.52288
[7] = iL, MV4-11 lysate, log10 M -4.52288
[8] = iL, MV4-11 lysate, log10 M -5.52288
[9] = iL, MV4-11 lysate, log10 M -6.52288
[10] = iQ, SW620 lysate, log10 M -3.52288
[11] = iQ, SW620 lysate, log10 M -4.52288
[12] = iQ, SW620 lysate, log10 M -5.52288
[13] = iQ, SW620 lysate, log10 M -6.52288

Chain of HDAC1 (Q13547 whole entry): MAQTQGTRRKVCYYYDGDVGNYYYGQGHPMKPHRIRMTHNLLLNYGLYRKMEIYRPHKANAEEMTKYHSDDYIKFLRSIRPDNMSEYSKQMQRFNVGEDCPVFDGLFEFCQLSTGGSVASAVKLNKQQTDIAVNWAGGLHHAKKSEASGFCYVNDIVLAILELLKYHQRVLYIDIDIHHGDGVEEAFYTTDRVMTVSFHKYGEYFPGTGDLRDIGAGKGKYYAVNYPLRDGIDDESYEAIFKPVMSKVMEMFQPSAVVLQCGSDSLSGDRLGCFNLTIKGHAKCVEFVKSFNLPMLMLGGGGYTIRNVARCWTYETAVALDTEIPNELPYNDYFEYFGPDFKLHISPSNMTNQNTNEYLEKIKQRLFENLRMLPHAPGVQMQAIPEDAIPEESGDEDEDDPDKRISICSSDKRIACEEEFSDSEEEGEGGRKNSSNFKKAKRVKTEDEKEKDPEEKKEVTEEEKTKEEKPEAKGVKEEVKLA

In the case of `NC(=O)CCCCC1CCSS1` (racemic) [(R/S)-LM, (R/S)-lipoamide], the “relative binding vs DMSO” value ([1]; log10 M -3.52288) is reported as 0.05785, the “relative binding vs DMSO” value ([1]; log10 M -4) is reported as 0.0548 and the “relative binding vs DMSO” value ([1]; log10 M -4.52288) is reported as 0.1462. For the same compound, the “relative binding vs DMSO” value ([1]; log10 M -5) was 0.4201, the “relative binding vs DMSO” value ([1]; log10 M -5.52288) was 0.5816 and the “relative binding vs DMSO” value ([1]; log10 M -6) was 0.5592. For the same compound, the “relative binding vs DMSO” value ([1]; log10 M -6.52288) was 0.7783, the “relative binding vs DMSO” value ([1]; log10 M -7) was 0.8248 and the “relative binding vs DMSO” value [2, 6] was 0.06889. The “relative binding vs DMSO” value ([2]; iL, MV4-11 lysate, log10 M -4) was 0.07597, the “relative binding vs DMSO” value [2, 7] was 0.1867 and the “relative binding vs DMSO” value ([2]; iL, MV4-11 lysate, log10 M -5) was 0.4972. The “relative binding vs DMSO” value [2, 8] was 0.6394, the “relative binding vs DMSO” value ([2]; iL, MV4-11 lysate, log10 M -6) was 0.7472 and the “relative binding vs DMSO” value [2, 9] was 0.8335. For the same compound, the “relative binding vs DMSO” value ([2]; iL, MV4-11 lysate, log10 M -7) was 0.9817, the “relative binding vs DMSO” value [2, 10] was 0.09916 and the “relative binding vs DMSO” value ([2]; iQ, SW620 lysate, log10 M -4) was 0.186. The “relative binding vs DMSO” value [2, 11] was 0.3209, the “relative binding vs DMSO” value ([2]; iQ, SW620 lysate, log10 M -5) was 0.6955 and the “relative binding vs DMSO” value [2, 12] was 0.8479. The “relative binding vs DMSO” value ([2]; iQ, SW620 lysate, log10 M -6) was 0.9866, the “relative binding vs DMSO” value [2, 13] was 0.7392 and the “relative binding vs DMSO” value ([2]; iQ, SW620 lysate, log10 M -7) was 0.6643. For the same compound, the “relative binding vs DMSO” value [3, 6] was 0.04482, the “relative binding vs DMSO” value ([3]; iL, MV4-11 lysate, log10 M -4) was 0.03145 and the “relative binding vs DMSO” value [3, 7] was 0.2203. For the same compound, the “relative binding vs DMSO” value ([3]; iL, MV4-11 lysate, log10 M -5) was 0.5854, the “relative binding vs DMSO” value [3, 8] was 0.7487 and the “relative binding vs DMSO” value ([3]; iL, MV4-11 lysate, log10 M -6) was 1.237. The “relative binding vs DMSO” value [3, 9] was 1.016, the “relative binding vs DMSO” value ([3]; iL, MV4-11 lysate, log10 M -7) was 0.9839 and the “relative binding vs DMSO” value [3, 10] was 0.0548. The “relative binding vs DMSO” value ([3]; iQ, SW620 lysate, log10 M -4) was 0.3164, the “relative binding vs DMSO” value [3, 11] was 0.4259 and the “relative binding vs DMSO” value ([3]; iQ, SW620 lysate, log10 M -5) was 0.6647. The “relative binding vs DMSO” value [3, 12] was 0.7959, the “relative binding vs DMSO” value ([3]; iQ, SW620 lysate, log10 M -6) was 1.1558 and the “relative binding vs DMSO” value [3, 13] was 0.7323. The “relative binding vs DMSO” value ([3]; iQ, SW620 lysate, log10 M -7) was 0.9341, the “relative binding vs DMSO” value [4, 6] was 0.1398 and the “relative binding vs DMSO” value ([4]; iL, MV4-11 lysate, log10 M -4) was 0.1277. For the same compound, the “relative binding vs DMSO” value [4, 7] was 0.1925, the “relative binding vs DMSO” value ([4]; iL, MV4-11 lysate, log10 M -5) was 0.5136 and the “relative binding vs DMSO” value [4, 8] was 0.6563. The “relative binding vs DMSO” value ([4]; iL, MV4-11 lysate, log10 M -6) was 0.8243, the “relative binding vs DMSO” value [4, 9] was 0.9555 and the “relative binding vs DMSO” value ([4]; iL, MV4-11 lysate, log10 M -7) was 1.012. The “relative binding vs DMSO” value [4, 10] was 0.03313, the “relative binding vs DMSO” value ([4]; iQ, SW620 lysate, log10 M -4) was 0.1846 and the “relative binding vs DMSO” value [4, 11] was 0.4151. For the same compound, the “relative binding vs DMSO” value ([4]; iQ, SW620 lysate, log10 M -5) was 0.6118, the “relative binding vs DMSO” value [4, 12] was 0.969 and the “relative binding vs DMSO” value ([4]; iQ, SW620 lysate, log10 M -6) was 0.8792. The “relative binding vs DMSO” value [4, 13] was 0.8032, the “relative binding vs DMSO” value ([4]; iQ, SW620 lysate, log10 M -7) was 1.062 and the “relative binding vs DMSO” value [5, 6] was 0.1265. For the same compound, the “relative binding vs DMSO” value ([5]; iL, MV4-11 lysate, log10 M -4) was 0.2225, the “relative binding vs DMSO” value [5, 7] was 0.3978 and the “relative binding vs DMSO” value ([5]; iL, MV4-11 lysate, log10 M -5) was 0.749. The “relative binding vs DMSO” value [5, 8] was 0.6057, the “relative binding vs DMSO” value ([5]; iL, MV4-11 lysate, log10 M -6) was 0.6823 and the “relative binding vs DMSO” value [5, 9] was 0.771. For the same compound, the “relative binding vs DMSO” value ([5]; iL, MV4-11 lysate, log10 M -7) was 0.9295, the Kd ([5]; iL, MV411) was 10 µM and the Kd ([5]; iL, SW620) was 12.6 µM. For the same compound, the Kd ([5]; iQ, SW620) was 20 µM, the “relative binding vs DMSO” value [5, 10] was 0.1684 and the “relative binding vs DMSO” value ([5]; iQ, SW620 lysate, log10 M -4) was 0.2856. For the same compound, the “relative binding vs DMSO” value [5, 11] was 0.6671, the “relative binding vs DMSO” value ([5]; iQ, SW620 lysate, log10 M -5) was 1.011 and the “relative binding vs DMSO” value [5, 12] was 0.8661. The “relative binding vs DMSO” value ([5]; iQ, SW620 lysate, log10 M -6) was 1.096, the “relative binding vs DMSO” value [5, 13] was 1.037 and the “relative binding vs DMSO” value ([5]; iQ, SW620 lysate, log10 M -7) was 1.154.
